Laboratory results published in ChEMBL document CHEMBL5465560, “Selectivity Literature for EUbOPEN Chemogenomic Library” (2024).

Assays:
[1] = target: RAF proto-oncogene serine/threonine-protein kinase (Homo sapiens) (UniProt P04049); experiment: Selectivity interaction (KinomeScan (DiscoverX)) EUB0000229b RAF1; conditions: at 10 µM
[2] = target: Mitogen-activated protein kinase 8 (Homo sapiens, UniProt P45983); experiment: Selectivity interaction (KinomeScan (DiscoverX)) EUB0000695a MAPK8; conditions: at 100 nM
[3] = target: Mitogen-activated protein kinase 10 (Homo sapiens, UniProt P53779); experiment: Selectivity interaction (KinomeScan (DiscoverX)) EUB0001079a MAPK10; conditions: at 1 µM
Sequence of Mitogen-activated protein kinase 10 (P53779 whole entry): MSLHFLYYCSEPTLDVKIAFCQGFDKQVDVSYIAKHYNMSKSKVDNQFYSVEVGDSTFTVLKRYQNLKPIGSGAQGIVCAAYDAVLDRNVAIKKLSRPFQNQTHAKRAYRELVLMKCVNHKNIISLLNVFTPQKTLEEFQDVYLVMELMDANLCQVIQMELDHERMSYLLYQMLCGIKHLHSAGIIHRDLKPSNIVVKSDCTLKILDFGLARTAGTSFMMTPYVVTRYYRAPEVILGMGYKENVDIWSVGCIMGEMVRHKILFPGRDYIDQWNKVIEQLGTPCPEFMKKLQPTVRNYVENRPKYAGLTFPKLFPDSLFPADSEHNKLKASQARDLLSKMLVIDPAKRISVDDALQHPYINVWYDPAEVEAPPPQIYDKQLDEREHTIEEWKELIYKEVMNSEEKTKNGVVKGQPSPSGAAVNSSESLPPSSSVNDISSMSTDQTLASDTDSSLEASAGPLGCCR

[4] = target: Tyrosine-protein kinase HCK (Homo sapiens) (UniProt P08631); experiment: Selectivity interaction (KinomeScan (DiscoverX)) EUB0000666a HCK; conditions: at 10 µM
Sequence of Tyrosine-protein kinase HCK (Homo sapiens) (P08631 2-526 limits assumed): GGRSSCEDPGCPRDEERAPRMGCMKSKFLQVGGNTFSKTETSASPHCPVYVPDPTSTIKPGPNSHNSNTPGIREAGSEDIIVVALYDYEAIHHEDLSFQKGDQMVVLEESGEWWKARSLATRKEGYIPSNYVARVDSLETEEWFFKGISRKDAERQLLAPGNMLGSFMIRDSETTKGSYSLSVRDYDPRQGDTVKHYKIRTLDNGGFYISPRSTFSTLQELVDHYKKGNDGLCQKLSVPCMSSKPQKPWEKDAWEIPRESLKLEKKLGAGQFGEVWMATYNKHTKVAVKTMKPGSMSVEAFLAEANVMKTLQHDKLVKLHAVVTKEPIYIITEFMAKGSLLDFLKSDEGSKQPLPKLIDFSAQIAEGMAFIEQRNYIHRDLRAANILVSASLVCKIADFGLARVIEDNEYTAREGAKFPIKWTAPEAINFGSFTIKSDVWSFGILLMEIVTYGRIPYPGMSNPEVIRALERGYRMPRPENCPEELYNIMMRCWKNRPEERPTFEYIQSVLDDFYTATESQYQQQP

[5] = target: Vascular endothelial growth factor receptor 2 (Homo sapiens, UniProt P35968); experiment: Selectivity interaction (ProQinase) EUB0000171b KDR
Sequence of Vascular endothelial growth factor receptor 2 (P35968 whole entry): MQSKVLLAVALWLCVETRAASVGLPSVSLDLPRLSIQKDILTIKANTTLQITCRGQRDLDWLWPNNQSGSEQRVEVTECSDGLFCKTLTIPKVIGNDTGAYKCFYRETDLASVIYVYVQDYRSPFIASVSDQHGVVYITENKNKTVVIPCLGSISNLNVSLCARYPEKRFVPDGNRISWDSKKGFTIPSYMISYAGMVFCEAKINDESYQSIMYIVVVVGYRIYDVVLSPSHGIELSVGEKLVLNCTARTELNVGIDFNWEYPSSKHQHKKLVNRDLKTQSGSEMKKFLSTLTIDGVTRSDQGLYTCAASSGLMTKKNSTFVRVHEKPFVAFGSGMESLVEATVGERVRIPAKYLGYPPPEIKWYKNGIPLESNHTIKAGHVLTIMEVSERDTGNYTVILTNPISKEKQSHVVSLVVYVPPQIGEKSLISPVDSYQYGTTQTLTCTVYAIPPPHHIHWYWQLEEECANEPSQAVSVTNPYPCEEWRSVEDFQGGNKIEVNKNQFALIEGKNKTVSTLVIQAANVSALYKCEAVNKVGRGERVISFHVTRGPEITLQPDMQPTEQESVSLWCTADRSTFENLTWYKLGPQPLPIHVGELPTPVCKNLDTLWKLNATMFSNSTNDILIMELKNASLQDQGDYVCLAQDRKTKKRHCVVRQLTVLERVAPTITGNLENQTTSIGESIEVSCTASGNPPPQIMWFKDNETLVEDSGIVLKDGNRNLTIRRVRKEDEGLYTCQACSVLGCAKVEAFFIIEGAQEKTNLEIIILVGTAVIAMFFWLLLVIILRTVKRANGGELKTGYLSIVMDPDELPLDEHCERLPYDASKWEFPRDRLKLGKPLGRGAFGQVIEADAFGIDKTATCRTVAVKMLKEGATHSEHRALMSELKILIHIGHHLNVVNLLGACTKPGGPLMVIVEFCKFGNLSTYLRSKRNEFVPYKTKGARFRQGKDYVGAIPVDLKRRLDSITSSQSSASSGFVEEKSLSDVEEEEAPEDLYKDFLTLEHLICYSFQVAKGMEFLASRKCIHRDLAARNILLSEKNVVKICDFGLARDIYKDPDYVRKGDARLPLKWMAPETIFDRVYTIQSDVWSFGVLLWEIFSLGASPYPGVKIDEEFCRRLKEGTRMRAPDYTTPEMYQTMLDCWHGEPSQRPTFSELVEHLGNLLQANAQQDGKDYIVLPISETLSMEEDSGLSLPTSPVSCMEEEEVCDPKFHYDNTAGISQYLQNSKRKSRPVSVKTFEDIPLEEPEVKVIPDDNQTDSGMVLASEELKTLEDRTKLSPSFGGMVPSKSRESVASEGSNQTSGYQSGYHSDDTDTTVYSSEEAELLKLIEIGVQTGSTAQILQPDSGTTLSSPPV

[6] = target: T1, Ephrin type-A receptor 1 (Homo sapiens) (UniProt P21709); experiment: Selectivity interaction (KinomeScan (DiscoverX)) EUB0000607a EPHA1; conditions: at 10 µM
T1 sequence (whole entry): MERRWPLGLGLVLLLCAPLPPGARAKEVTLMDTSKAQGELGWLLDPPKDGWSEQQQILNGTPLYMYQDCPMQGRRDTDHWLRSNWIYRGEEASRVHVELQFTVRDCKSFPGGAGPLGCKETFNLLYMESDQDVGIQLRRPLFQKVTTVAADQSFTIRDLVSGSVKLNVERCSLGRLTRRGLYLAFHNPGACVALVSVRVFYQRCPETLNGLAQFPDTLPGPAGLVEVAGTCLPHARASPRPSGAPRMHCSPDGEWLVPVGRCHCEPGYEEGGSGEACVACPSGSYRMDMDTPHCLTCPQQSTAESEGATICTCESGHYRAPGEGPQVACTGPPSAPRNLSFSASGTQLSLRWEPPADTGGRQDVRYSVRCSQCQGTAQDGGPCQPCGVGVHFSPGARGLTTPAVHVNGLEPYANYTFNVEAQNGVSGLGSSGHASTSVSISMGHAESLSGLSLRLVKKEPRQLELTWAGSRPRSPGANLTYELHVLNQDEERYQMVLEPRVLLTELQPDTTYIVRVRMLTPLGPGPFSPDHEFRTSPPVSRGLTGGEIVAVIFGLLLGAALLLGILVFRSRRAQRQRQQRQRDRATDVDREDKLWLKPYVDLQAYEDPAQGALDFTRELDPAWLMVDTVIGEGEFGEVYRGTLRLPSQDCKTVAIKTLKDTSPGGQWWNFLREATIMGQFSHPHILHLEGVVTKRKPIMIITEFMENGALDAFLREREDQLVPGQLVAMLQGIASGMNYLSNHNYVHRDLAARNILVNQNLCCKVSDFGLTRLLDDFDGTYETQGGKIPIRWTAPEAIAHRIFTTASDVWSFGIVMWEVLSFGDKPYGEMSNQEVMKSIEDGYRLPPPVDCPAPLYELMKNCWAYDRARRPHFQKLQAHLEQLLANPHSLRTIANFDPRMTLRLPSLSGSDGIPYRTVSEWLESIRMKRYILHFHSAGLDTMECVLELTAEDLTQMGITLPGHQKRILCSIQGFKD

[7] = tested on: Tyrosine-protein kinase ABL1 (Homo sapiens), P00519 [T315I]; experiment: Selectivity interaction (KinomeScan (DiscoverX)) EUB0000607a ABL1; conditions: at 10 µM
[8] = target: Cyclin-dependent kinase-like 1 (Homo sapiens) (UniProt Q00532); experiment: Selectivity interaction (KinomeScan (DiscoverX)) EUB0000618a CDKL1; conditions: at 10 µM
Sequence of Cyclin-dependent kinase-like 1 (Homo sapiens) (Q00532 whole entry): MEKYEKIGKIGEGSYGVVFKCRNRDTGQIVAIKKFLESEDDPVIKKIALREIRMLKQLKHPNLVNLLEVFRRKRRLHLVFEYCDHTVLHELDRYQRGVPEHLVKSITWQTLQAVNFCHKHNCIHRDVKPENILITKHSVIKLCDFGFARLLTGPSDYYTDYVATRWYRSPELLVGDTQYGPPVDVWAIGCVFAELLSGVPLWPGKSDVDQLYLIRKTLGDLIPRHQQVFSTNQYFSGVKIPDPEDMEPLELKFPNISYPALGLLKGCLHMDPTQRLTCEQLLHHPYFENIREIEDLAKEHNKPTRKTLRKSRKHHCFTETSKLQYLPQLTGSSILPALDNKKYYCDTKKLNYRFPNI

[9] = target: T2, Megakaryocyte-associated tyrosine-protein kinase (Homo sapiens) (UniProt P42679); experiment: Selectivity interaction (Kinase panel (Invitrogen)) EUB0000639a MATK; conditions: at 200 nM
T2 sequence (whole entry): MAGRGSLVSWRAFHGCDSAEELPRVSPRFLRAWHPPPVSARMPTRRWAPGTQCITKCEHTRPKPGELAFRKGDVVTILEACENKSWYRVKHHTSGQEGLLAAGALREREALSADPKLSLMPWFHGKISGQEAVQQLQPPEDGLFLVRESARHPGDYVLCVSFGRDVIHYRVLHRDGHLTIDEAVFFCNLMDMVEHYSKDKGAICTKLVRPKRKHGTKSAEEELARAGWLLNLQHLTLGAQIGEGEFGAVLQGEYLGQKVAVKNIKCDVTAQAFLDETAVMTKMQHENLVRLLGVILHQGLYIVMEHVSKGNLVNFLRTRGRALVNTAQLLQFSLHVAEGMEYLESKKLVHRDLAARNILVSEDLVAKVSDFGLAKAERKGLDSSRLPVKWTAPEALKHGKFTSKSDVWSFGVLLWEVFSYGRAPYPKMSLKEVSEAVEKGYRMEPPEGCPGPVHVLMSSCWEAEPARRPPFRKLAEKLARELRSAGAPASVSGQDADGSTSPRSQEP

[10] = target: Tyrosine-protein kinase BTK (Homo sapiens, UniProt Q06187); experiment: Selectivity interaction (ActivX KiNativ screen (kinase selectivity in THP-1 cell lysates)) EUB0000639a BTK; type: subcellular; conditions: lysate, at 0.2 µM
Sequence of Tyrosine-protein kinase BTK (Q06187 whole entry): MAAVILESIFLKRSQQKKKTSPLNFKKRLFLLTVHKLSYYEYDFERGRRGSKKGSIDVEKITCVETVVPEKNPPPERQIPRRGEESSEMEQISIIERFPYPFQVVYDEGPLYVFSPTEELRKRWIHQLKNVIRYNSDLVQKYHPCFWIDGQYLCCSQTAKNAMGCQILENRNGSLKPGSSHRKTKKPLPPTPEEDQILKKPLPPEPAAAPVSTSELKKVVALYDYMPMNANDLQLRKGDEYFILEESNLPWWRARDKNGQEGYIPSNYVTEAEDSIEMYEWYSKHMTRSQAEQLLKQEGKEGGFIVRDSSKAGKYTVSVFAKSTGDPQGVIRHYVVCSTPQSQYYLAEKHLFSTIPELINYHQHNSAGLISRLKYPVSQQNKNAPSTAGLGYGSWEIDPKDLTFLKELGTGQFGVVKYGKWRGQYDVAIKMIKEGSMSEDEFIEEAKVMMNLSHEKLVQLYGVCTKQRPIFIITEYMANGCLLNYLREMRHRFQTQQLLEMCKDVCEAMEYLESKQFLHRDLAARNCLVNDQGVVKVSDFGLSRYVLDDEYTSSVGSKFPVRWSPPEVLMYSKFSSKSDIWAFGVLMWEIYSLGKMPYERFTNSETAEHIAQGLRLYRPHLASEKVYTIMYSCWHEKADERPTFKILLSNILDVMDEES

[11] = target: Serine/threonine-protein kinase SIK1 (Homo sapiens) (UniProt P57059); experiment: Selectivity interaction (KinomeScan (DiscoverX)) EUB0000092b SIK1; conditions: at 10 µM
Sequence of Serine/threonine-protein kinase SIK1 (Homo sapiens) (P57059 whole entry): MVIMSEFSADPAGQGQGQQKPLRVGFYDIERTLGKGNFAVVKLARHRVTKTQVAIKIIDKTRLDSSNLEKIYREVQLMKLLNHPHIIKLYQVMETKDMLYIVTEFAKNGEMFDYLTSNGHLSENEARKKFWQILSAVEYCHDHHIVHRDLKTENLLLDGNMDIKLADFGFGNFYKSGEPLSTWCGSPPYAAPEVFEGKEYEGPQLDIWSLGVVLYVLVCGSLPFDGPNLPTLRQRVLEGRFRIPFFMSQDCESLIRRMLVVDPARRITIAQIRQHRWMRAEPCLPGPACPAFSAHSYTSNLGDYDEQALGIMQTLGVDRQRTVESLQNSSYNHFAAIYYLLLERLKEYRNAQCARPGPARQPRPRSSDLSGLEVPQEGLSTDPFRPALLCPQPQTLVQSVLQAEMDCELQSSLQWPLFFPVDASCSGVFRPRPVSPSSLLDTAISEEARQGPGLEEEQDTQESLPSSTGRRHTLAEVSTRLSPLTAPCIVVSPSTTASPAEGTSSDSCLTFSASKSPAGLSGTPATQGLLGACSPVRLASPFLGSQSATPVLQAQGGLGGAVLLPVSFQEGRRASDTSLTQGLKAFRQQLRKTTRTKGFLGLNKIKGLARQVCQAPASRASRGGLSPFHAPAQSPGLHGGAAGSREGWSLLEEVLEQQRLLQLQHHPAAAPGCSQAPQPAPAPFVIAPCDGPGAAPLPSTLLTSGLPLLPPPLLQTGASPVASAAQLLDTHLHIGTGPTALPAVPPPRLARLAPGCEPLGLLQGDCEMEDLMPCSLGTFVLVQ

[12] = target: T3, MAP/microtubule affinity-regulating kinase 4 (Homo sapiens) (UniProt Q96L34); experiment: Selectivity interaction (Ambit KINOMEscan and KiNATiv profiling in Jurkat cells) EUB0000090b MARK4; type: cell-based; conditions: at 1 µM
T3 sequence (whole entry): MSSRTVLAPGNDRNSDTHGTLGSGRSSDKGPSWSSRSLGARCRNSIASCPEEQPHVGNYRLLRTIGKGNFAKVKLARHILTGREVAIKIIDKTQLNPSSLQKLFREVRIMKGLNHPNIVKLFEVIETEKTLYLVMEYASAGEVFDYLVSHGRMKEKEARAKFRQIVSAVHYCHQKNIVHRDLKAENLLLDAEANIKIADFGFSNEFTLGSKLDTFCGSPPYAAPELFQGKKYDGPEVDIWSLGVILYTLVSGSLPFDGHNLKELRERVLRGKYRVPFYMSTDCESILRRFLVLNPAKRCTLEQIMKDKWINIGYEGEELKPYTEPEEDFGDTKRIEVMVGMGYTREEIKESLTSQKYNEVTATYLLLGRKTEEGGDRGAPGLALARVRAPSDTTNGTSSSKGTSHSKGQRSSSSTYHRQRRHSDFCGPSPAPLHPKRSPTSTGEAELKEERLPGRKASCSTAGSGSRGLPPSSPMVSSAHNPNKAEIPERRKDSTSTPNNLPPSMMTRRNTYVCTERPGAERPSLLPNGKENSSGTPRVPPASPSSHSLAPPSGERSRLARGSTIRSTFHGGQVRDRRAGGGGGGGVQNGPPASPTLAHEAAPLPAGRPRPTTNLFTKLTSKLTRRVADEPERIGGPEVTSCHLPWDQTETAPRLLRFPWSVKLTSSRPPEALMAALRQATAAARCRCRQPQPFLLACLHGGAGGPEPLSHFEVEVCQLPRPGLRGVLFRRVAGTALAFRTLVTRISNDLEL

Sequence of RAF proto-oncogene serine/threonine-protein kinase (Homo sapiens) (P04049 whole entry): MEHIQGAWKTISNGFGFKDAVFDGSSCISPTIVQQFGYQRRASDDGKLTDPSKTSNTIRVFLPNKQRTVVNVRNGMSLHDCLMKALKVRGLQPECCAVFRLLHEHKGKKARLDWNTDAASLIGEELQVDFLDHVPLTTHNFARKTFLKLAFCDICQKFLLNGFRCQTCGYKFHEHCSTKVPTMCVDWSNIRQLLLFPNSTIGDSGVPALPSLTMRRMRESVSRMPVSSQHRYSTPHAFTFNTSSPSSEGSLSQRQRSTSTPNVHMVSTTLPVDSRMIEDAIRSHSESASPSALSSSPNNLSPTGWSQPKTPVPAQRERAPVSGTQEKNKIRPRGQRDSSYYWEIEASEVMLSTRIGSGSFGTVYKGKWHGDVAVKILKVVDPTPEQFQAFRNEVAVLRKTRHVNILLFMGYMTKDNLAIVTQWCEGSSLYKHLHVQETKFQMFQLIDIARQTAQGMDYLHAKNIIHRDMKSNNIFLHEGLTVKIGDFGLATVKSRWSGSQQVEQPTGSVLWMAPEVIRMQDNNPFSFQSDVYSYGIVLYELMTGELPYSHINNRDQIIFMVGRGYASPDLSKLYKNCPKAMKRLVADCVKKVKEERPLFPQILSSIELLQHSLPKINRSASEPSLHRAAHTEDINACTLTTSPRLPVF

Q: For `COc1cc(N(C)c2ccnc3ccc(C(F)(F)F)cc23)cc(OC)c1OC`, which % binding [1] is on record?
A: 91%

Q: For `Cc1cc(F)c(C(=O)Nc2cccc(-c3nncn3C(C)C)n2)cc1-n1cnc(C2CC2)c1`, which % of control [2] is on record?
A: 72%

Q: With `Nc1cnc(N2CCc3cc(S(=O)(=O)Nc4c(F)cc(Cl)cc4F)cc(N4CCCC4=O)c32)nc1` [TP-020n] as the molecule, how does the % of control [3] read?
A: 94%

Q: How did the % of control [4] turn out when `O=C(NOC[C@H](O)CO)c1ccc(F)c(F)c1Nc1ccc(I)cc1F` was run?
A: 100%

Q: For `C=CC(=O)Nc1cccc(C(=O)Nc2ccc(Nc3cc(-c4[nH]c(SC)nc4C)ccn3)cc2)c1`, which % of control ([5]; at 1 µM) is on record?
A: 78%

Q: And the % of control ([5]; at 5 µM)?
A: 50%

Q: Which results are given for `CNC(=O)Nc1ccc(-c2nc(N3CC4CCC(C3)O4)c3cnn(C4CCC5(CC4)OCCO5)c3n2)cc1`?
A: % of control [6]: 81%; % of control [7]: 80%

Q: Which % of control [8] does the source give for `O[C@H]1CC[C@H](Nc2ncc3nc(Nc4c(F)cc(F)cc4F)n([C@H]4CCOC4)c3n2)CC1` here?
A: 95%

Q: `CC[C@@H]1[C@H](F)C(=O)N[C@@H]1COc1nccc2cc(C(N)=O)c(OC)cc12` [ZIMLOVISERTIB] was tested. Which % of inhibition [9] did it give?
A: 1.51%

Q: And the % of inhibition [10]?
A: -2.7%

Q: Which % of control [11] does the source give for `CCC(=O)N1CCN(c2ccc(-n3c(=O)ccc4cnc5ccc(-c6cnc7ccccc7c6)cc5c43)cc2C(F)(F)F)CC1` here?
A: 80%

Q: `CN(C)C/C=C/C(=O)Nc1ccc(C(=O)N2CCCC(Nc3ncc(Cl)c(-c4c[nH]c5ccccc45)n3)C2)cc1` (stereo not drawn) was tested. Which % of control [12] did it give?
A: 100%
